Reference: paper PMC12701685, “Support Vector Machine Identification of Small Molecule Binders to an Understudied Allosteric Site of SARS‐CoV‐2 Mpro for Next‐Generation PROTAC‐Based Therapeutics” (Archiv Der Pharmazie, 2025)
Read-outs that look alike come from different tables or passages of the source.

Legend:
[1] = test system: virus‐infected VeroE6 cells; details: plaque reduction; cited from earlier work
[2] = test system: virus‐infected VeroE6 cells; details: cytopathic effect (CPE) inhibition; cited from earlier work
SARS‐CoV‐2 Mpro [3] = target: T1, SARS‐CoV‐2 Mpro (Severe acute respiratory syndrome coronavirus 2, UniProt P0DTD1); test: FRET peptide substrate enzymatic assay; format: biochemical; details: compound 20 µM; for remaining activity at 20 µM: enzyme 75 nM, substrate 25 µM, read-out: Residual activity (%)
Method: The three compounds identified as binders in the MST assay were tested for their inhibitory properties against SARS‐CoV‐2 Mpro at a 20 µM concentration (see Section 4 for details).
Inhibitory activities of the compounds against SARS‐CoV‐2 Mpro were determined as described previously by cleavage of a fluorescence resonance energy transfer (FRET) peptide substrate (Dabcyl‐[…]‐Edans), purchased from Genescript (New Jersey, USA).
Fluorescence measurements were carried out in white flat‐bottom 96‐well plates (Greiner Bio‐One, Kremsmünster, Upper Austria) using a Tecan Spark 10M plate reader (Tecan Group Ltd., Männedorf, Switzerland). Each well contained a final volume of 200 µL, consisting of 180 µL assay buffer (20 mM TRIS‐HCl pH 7.5, 20 mM NaCl, 0.1 mM EDTA, 1 mM DTT), 5 µL enzyme solution (final concentration 75 nM), 10 µL inhibitor in DMSO (final concentration 20 µM) or pure DMSO as a negative control, and 5 µL substrate solution in DMSO (final concentration 25 µM). The reaction was monitored for 10 min at 25°C, with fluorescence readings taken at 30‐s intervals. The substrate was excited at 335 nm, and fluorescence emission was recorded at 493 nm. The remaining enzymatic activity was determined by comparing the substrate hydrolysis rate in reaction mixtures containing the inhibitors to that of the DMSO control. Only the first 5 min of the fluorescence curves (Supporting Information S1: Figure S3) were used for the calculation to obtain the linear part.

SARS‐CoV‐2 Mpro [4] = target: T1, SARS‐CoV‐2 Mpro; test: Microscale thermophoresis (MST) binding check and binding affinity; details: for RA (Response Amplitude): MST binding affinity experiment, RA ≥ 1.5 indicative of binding; for Kd: MST, labeled Mpro 35 nM, 16 1:1 serial dilutions, two independent experiments, read-out: K d ± K d confidence
SARS‐CoV‐2 Mpro [5] = target: T1, SARS‐CoV‐2 Mpro; details: non‐covalent inhibitors; cited from earlier work
[6] = test system: SARS‐CoV‐2 replication in Vero E6 cells; details: cited from earlier work
SARS-CoV-1 = details: cited from earlier work
infected cells = details: cited from earlier work

Row | Structure (SMILES) | Effect on enzyme activity (in words) (SARS‐CoV‐2 Mpro [3]) | remaining activity at 20 µM (SARS‐CoV‐2 Mpro [3]) [%] | RA (Response Amplitude) (SARS‐CoV‐2 Mpro [4]) | Kd (SARS‐CoV‐2 Mpro [4]) [µM] | also measured
1 | O=C(Cn1nnc2ccccc21)N(Cc1cccc(Cl)c1)c1ccc(-c2c[nH]cn2)cc1 [compound 47] |  |  |  |  | EC50 [1]: 560 nM; EC50 [2]: 500 nM
2 | Cc1ccc(C(=O)NCCCNC(=O)c2ccccn2)cc1C [compound 7] | no effect on the catalytic activity | 105 | 3.4 | 2.8 ± 0.9 | 
3 | O=C(c1c[nH]c(=O)[nH]c1=O)N1CCN(c2ccc(Cl)c(Cl)c2)CC1 [compound 23] |  |  |  |  | IC50 (SARS‐CoV‐2 Mpro [5]): 5100 ± 630 nM
4 | O=C(NC1CCNCC1)c1n[nH]cc1NC(=O)c1c(Cl)cccc1Cl [AT7519, N‐(4‐piperidinyl)‐4‐(2,6‐dichlorobenzoylamino)‐1H‐ Pyrazole‐3‐Carboxamide] |  |  |  |  | EC50 [6]: 25.2 µM
5 | CCOc1cccc(-c2nn3c(-c4cccnc4)nnc3s2)c1 [compound 8] | no effect on the catalytic activity | 101 | 4.7 | 23.9 ± 7.4 | 
6 | CCC(C)(C)NC(=O)[C@@H](c1ccn(C)c1)N(C(=O)Cn1nnc2ccccc21)c1ccc(NC(C)=O)cc1 [compound 42] |  |  |  |  | IC50 (SARS-CoV-1): 6.2 µM
7 | Cc1cc2ncn(S(=O)(=O)c3ccc(S(N)(=O)=O)cc3)c2cc1C [compound 9] | no effect on the catalytic activity | 106 | 2.7 | 39 ± 23.4 | 
8 | O=C(NCc1cccs1)[C@@H]1CN(C(=O)c2cccnc2)CCN1c1ccc(Cl)c(Cl)c1 [compound 51] |  |  |  |  | EC50 (infected cells): ~1100 nM; IC50 (SARS‐CoV‐2 Mpro [5]): ~400 nM
